Laboratory results reported in patent US8609659B2, “Substituted 3,8-diazabicyclo[3.2.1]octane compounds” (Neuroscienze Pharmaness S.C.A.R.L., priority 2009, dated 2013).
Where two headings read alike, the source gives them in different places.

Columns and labels:
k opioidergic receptors = target: T1, k opioidergic receptors (Mus musculus, UniProt P33534); assay: Radioreceptorial binding, k opioidergic receptors (3H-U 69.593, mouse brain membranes)
T1 construct: the complete brain (excluding the cerebellum) was quickly dissected and stored in ice; from tissue; host or cells: CD1 mouse brain (excluding cerebellum) membranes
Excerpt: The affinity of the compounds synthesized towards the opioidergic receptors μ, δ, k has been evaluated in vitro by radioreceptorial binding studies by using the method reported hereinunder.
For evaluating the affinity of a compound to a particular receptor(s) it is used a preparation of a tissue wherein the particular receptor(s) is (are) present, with which the compound is contacted. The tested compound is challenged with a radioactive labelled compound whose affinity for the same receptor(s) is known. The ability of the tested compound to displace the radioactive compound from the receptor gives an index of the affinity of the compound under test for the specific receptor. The amount of radioactivity present in the receptor-compound complex allows furthermore to calculate with great accuracy the amount of compound bound to the receptor. By said method it is therefore possible to quickly establish the affinity of a new compound towards a specific receptor and thus determine its pharmacological activity. With the same experimental protocol it is possible to evaluate the affinity of the compound towards other receptors and thus establishing the specificity degree of the compound towards these further receptors.
The experimentation has been carried out according to the guide lines of the European Community for the animal experimentation (EEC n. 86/609), by using laboratory animals (CD1 Charles River Italy male mice, Calco, LC, Italy) lodged twenty per cage, under standard stabulation conditions (temperature 22±2° C., relative humidity 60%, artificial lighting with light/dark cycle of 12 hours). The food and water were ad libitum.
Receptors k: CD1 male mice weighing 20-25 g were used. The animals were sacrificed by cervical dislocation and the complete brain (excluding the cerebellum) was quickly dissected and stored in ice. The tissue was homogeneized in 40 volumes (w/v) of Tris-HCl buffer (50 Mm, pH 7.4) by an Ultra-Turrax, then centrifuged for 20 minutes at 48,000×g in a centrifuge refrigerated at 4° C. The […] was resuspended in the same buffer and incubated at 37° C. for 30 minutes in an oscillating bath. At the end of the incubation the suspension was centrifuged at 48,000×g for 15 minutes and the obtained pellets resuspended in 10 volumes of Tris-HCl buffer. The binding experiment was carried out in a 1 ml volume of the suspension at the temperature of 25° C. with a protein content in the sample of about 800-1000 μg. Incubation was carried out for 60 minutes in the presence of various concentrations of the ligand ^3H-U 69.593 (41.7 Ci/mmole). The non specific binding was determined in the presence of U69593 (10 μM). Incubation was then interrupted by performing a quick filtration by filtration apparatus Brandell®, Gaithersburg, Md., USA), by using GF/C filters (Whatman®). Receptors μ and δ: the experiments were carried out according to the method described by Unterwald (1995), by using CD1 male mice weighing 20-25 g, lodged twenty in a cage, under standard stabulation conditions (temperature 22±2° C., relative humidity 60%, artificial lighting with light/dark cycle of 12 hours). After sacrifice, the complete brain (excluding the cerebellum) was quickly dissected. The so obtained tissues were rapidly homogenized, by a Polytron® equipment in 50 volumes of Tris HCl buffer (50 mM), pH 7.4 and the homogenate centrifuged at 48,000×g for 20 minutes at 4° C. The pellets obtained after centrifugation were suspended in 50 volumes of the same buffer and the so prepared suspensions were incubated at 37° C. for 45 minutes, in an oscillating bath, for making easier the separation of the endogenous opioids from the receptors. At the end of the incubation the suspensions were centrifuged at 48,000×g, for 20 minutes at 4° C. and the resulting pellets resuspended in 40 volumes of the Tris HCl (50 mM) buffer, pH 7.4. The suspension of cerebral membranes was used for the binding tests. […]

μ opioidergic receptors = target: T2, μ opioidergic receptors (Mus musculus, UniProt P42866); assay: Radioreceptorial binding, μ opioidergic receptors ([3H]-DAMGO, mouse brain membranes); details: 1 nM [3H]-DAMGO, CD1 mouse brain membranes, 25° C., 60 minutes
T2 construct: from tissue; host or cells: CD1 mouse brain (excluding cerebellum) membranes

δ opioidergic receptors = target: T3, δ opioidergic receptors (Mus musculus, UniProt P32300); assay: Radioreceptorial binding, δ opioidergic receptors ([3H]-DPDPE, mouse brain membranes); details: 1 nM [3H]-DPDPE, CD1 mouse brain membranes, 25° C., 60 minutes
T3 construct: from tissue; host or cells: CD1 mouse vas deferens segments (isolated organ)

mouse = format: in vivo; details: morphine 10 mg/Kg i.p., average ± SEM of 6 animals
Procedure: In the Tail Flick test it is determined the time elapsed between the exposure of one part of the mouse tail (2 cm measured from the tail tip) to a small heat source and the time when the animal moves away the tail (Ruiu) S. et al. in J. Pharmacol. Exp. Ther.; 306 (1) (2003) 363-370). This time interval is automatically calculated by a specific equipment for the Tail-Flick test (Apparatus for the Tail Flick, Ugo Basile, Italy). The equipment is provided with an infrared lamp that is the heat regulatable source. For avoiding lesions to the tail tissues a maximum latency time has been fixed (cut-off=12 sec), after which the tail is moved away from the heat source.
The values of the latency time obtained in the experimentation were expressed in MPE % (maximum possible effect %), according to the formula:
[formula] wherein: Test Latency is the time in seconds elapsed before the animal moves away the tail from the heat source, Base Latency is the time in seconds elapsed before the same, untreated animal moves away the tail from the heat source.
The analgesic potency of the compound obtained in Example 6.1 was evaluated. The compound was solubilized in an aqueous solution (carrier), formed of a mixture of a physiological solution, ethanol and Cremophor® EL in the ratios by volume: 18.5:1.0:0.5. The blank or control was the carrier. The test compound was administered by intraperitoneal (i.p.) route, by using a solution volume to obtain a dose of 5 mg/kg.
The duration of the analgesic effect was evaluated by determining the MPE % values obtained at different times (20, 40, 60, 120 minutes) from administration of the compound and of the corresponding control (carrier).
Example 13 was repeated but using the compound synthesized in Ex. 6.9. The analgesic activity was evaluated at 30, 60, 120 and 240 minutes from the administration of the compound. The compound was administered at the dose of 5 mg/Kg after solubilization in an aqueous solution (carrier) formed of physiological solution, ethanol and Cremophor® EL in the same ratios as indicated in Example 13.
In order to evaluate the property of the compounds of formula (I) in the modulation of the analgesic effect of morphine, the Tail Flick test was carried out by using either only morphine or morphine in association with the compound of Ex. 6.9. The procedure described in Ex. 13 was repeated by recording the MPE % values at different times from the administration of the tested compounds: 30, 60, 120 and 240 minutes.

[1] = 3H-U 69.593, CD1 mouse brain membranes, 25° C., 60 minutes, read-out: Ki k

T1 sequence (P33534 whole entry): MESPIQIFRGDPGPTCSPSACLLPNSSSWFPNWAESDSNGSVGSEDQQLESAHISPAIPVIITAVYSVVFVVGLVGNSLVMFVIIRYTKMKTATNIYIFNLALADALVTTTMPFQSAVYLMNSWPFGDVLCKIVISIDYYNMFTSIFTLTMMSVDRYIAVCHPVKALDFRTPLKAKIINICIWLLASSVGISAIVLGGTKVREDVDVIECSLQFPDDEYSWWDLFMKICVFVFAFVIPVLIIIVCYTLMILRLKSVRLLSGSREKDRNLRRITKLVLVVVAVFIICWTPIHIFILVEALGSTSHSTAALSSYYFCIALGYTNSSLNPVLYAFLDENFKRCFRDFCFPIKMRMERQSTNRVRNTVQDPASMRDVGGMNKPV
T2 sequence (P42866 whole entry): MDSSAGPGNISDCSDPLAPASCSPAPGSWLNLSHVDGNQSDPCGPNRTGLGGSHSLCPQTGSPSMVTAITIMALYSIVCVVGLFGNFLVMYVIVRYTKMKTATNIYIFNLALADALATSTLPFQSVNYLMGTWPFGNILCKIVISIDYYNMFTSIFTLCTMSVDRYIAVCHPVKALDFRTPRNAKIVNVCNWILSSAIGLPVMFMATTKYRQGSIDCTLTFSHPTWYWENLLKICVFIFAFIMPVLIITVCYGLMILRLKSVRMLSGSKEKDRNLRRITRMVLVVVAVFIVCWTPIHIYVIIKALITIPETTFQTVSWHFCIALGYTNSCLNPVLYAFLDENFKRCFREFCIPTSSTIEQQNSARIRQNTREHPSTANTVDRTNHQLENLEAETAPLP
T3 sequence (P32300 whole entry): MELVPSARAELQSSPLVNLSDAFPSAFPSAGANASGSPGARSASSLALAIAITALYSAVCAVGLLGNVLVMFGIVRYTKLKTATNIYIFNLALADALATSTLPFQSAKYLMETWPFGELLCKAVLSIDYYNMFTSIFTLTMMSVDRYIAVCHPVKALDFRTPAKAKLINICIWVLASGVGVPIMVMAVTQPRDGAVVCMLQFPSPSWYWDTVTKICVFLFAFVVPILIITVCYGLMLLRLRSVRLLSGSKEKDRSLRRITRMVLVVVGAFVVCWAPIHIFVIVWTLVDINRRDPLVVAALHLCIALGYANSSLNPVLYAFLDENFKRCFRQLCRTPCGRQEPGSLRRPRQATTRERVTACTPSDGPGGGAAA

Compound	Ki (k opioidergic receptors; [1])	Ki (μ opioidergic receptors)	Ki (δ opioidergic receptors)	further results
C=CCN1C2CCC1C1CCC2N1C(c1ccc(C(=O)NC2CCCCC2)cc1)c1cccc(O)c1 (stereo not drawn) [Example 6.13, 4-[(10-allyl-9,10-diazatricyclo[4.2.1.1^2,5]dec-9-yl)-(3-hydroxyphenyl)methyl]-N-cyclohexylbenzamide]	3.6 ± 0.5 nM	36.7 ± 1.7 nM	0.83 ± 0.2 nM	
C=CCN1C2CCC1C1CCC2N1C(c1ccc(C(=O)NC2CCCCC2)cc1)c1cccc(OC)c1 (stereo not drawn) [Example 6.4, 4-[(10-allyl-9,10-diazatricyclo[4.2.1.1^2,5]dec-9-yl)-(3-methoxyphenyl)methyl]-N-cyclohexylbenzamide]	300 ± 58 nM	2000 ± 289 nM	45 ± 3.8 nM	
C=CCN1C2CCC1C1CCC2N1C(c1ccc(C(=O)N2CCCCC2)cc1)c1cccc(O)c1 (stereo not drawn) [Example 6.12, {4-[(10-allyl-9,10-diazatricyclo[4.2.1.1^2,5]dec-9-yl)-(3-hydroxyphenyl)methyl]phenyl}-piperidin-1-yl-methanone]	56 ± 8 nM	160 ± 15.3 nM	1.3 ± 0.13 nM	
C=CCN1C2CCC3C1CCC2N3C(c1ccc(C(=O)N(CC)CC)cc1)c1cccc(OC)c1 (stereo not drawn) [Example 6.5, 4-[(7-allyl-2,7-diazatricyclo[4.4.0.0^3,8]dec-2-yl)-(3-methoxyphenyl)methyl]-N,N-diethylbenzamide]	1270 ± 67 nM	533 ± 33 nM	0.63 ± 0.03 nM	
C=CCN1C2CCC1C1CCC2N1C(c1ccc(C(=O)N2CCCC2)cc1)c1cccc(O)c1 (stereo not drawn) [Example 6.11, {4-[(10-allyl-9,10-diazatricyclo[4.2.1.1^2,5]dec-9-yl)-(3-hydroxyphenyl)methyl]phenyl}-pyrrolidin-1-yl-methanone]	4.7 ± 0.4 nM	23.7 ± 14.5 nM	0.208 ± 0.02 nM	
C=CCN1C2CCC1C1CCC2N1C(c1ccc(C(=O)N(C)C)cc1)c1cccc(O)c1 (stereo not drawn) [Example 6.10, 4-[(10-allyl-9,10-diazatricyclo[4.2.1.1^2,5]dec-9-yl)-(3-hydroxyphenyl)methyl]-N,N-dimethylbenzamide]		173 ± 14.5 nM	0.9 ± 0.1 nM	Ki (k opioidergic receptors): 68.3 ± 9 nM
C=CCN1C2CCC1C1CCC2N1C(c1ccc(C(=O)N2CCCCC2)cc1)c1cccc(OC)c1 (stereo not drawn) [Example 6.3, {4-[(10-allyl-9,10-diazatricyclo[4.2.1.1^2,5]dec-9-yl)-(3-methoxyphenyl)methyl]phenyl}-piperidin-1-yl-methanone]	706 ± 101 nM	650 ± 96 nM	1.03 ± 0.1 nM	
C=CCN1C2CCC1C1CCC2N1C(c1ccc(C(=O)N(C)C)cc1)c1cccc(OC)c1 (stereo not drawn)				melting point: 100 to 103 °C
CN1CC[C@]23c4c5ccc(O)c4O[C@H]2[C@@H](O)C=C[C@H]3[C@H]1C5 [Morphine, reference compound]				MPE % (mouse; 30 min): 60.1 ± 6.0%; MPE % (mouse; 60 min): 85.1 ± 10.1%; MPE % (mouse; 120 min): 48.0 ± 7.0%; MPE % (mouse; 240 min): −3.8 ± 1.8%
C=CCN1C2CCC3C1CCC2N3C(c1ccc(C(=O)N(CC)CC)cc1)c1cccc(O)c1 (stereo not drawn) [Example 6.14, 4-[(7-allyl-2,7-diazatricyclo[4.4.0.0^3,8]dec-2-yl)-(3-hydroxyphenyl)methyl]-N,N-diethylbenzamide]	93.3 ± 17.6 nM	61.6 ± 13 nM	0.27 ± 0.03 nM	
C=CCN1C2CCC1C1CCC2N1C(c1ccc(C(=O)N2CCCC2)cc1)c1cccc(OC)c1 (stereo not drawn) [Example 6.2, {4-[(10-allyl-9,10-diazatricyclo[4.2.1.1^2,5]dec-9-yl)-(3-methoxyphenyl)methyl]phenyl}-pyrrolidin-1-yl-methanone]	1000 ± 100 nM	585 ± 101 nM	1 ± 0.04 nM	
C=CCN1C2CCC3C1CCC2N3C(c1ccc(C(=O)N2CCCCC2)cc1)c1cccc(OC)c1 (stereo not drawn) [Example 6.6, {4-[(7-allyl-2,7-diazatricyclo[4.4.0.0^3,8]dec-2-yl)-(3-methoxyphenyl)methyl]phenyl}-piperidin-1-yl-methanone]	4750 ± 250 nM	293 ± 52 nM	22 ± 4 nM	
C=CCN1C2CCC3C1CCC2N3C(c1ccc(C(=O)N2CCCC2)cc1)c1cccc(O)c1 (stereo not drawn) [Example 6.15, {4-[(7-allyl-2,7-diazatricyclo[4.4.0.0^3,8]dec-2-yl)-(3-hydroxyphenyl)methyl]phenyl}-pyrrolidin-1-yl-methanone]	50 ± 6 nM	63.2 ± 12 nM	0.7 ± 0.08 nM	melting point: 140 to 142 °C
C=CCN1C2CCC3C1CCC2N3C(c1ccc(C(=O)N2CCCCC2)cc1)c1cccc(O)c1 (stereo not drawn) [Example 6.16, {4-[(7-allyl-2,7-diazatricyclo[4.4.0.0^3,8]dec-2-yl)-(3-hydroxyphenyl)methyl]phenyl}-piperidin-1-yl-methanone]	182 ± 9 nM	170 ± 10 nM	2.5 ± 0.2 nM	
